Laboratory results published in a compilation of properties of binary mixtures (doi:10.1021/acs.jced.0c00801).

Assay: xn = mol fraction of the nth substance listed
Details: 101 kPa

CC[n+]1ccn(C)c1.N#C[S-] + CCO
Details	speed of sound, 283.15 K [m/s]	speed of sound, 293.15 K [m/s]	speed of sound, 303.15 K [m/s]	speed of sound, 313.15 K [m/s]	speed of sound, 323.15 K [m/s]	viscosity, 283.15 K [mPa·s]	viscosity, 293.15 K [mPa·s]	viscosity, 303.15 K [mPa·s]	viscosity, 313.15 K [mPa·s]	viscosity, 323.15 K [mPa·s]
x1 = 0.0504	1281.9	1249.4	–	–	1155	1.93	1.58	–	–	0.94
x1 = 0.1001	1345.1	1314.4	1284.3	1254.6	1225.4	2.34	1.91	1.59	1.34	1.14
x1 = 0.2012	1466.4	1438.1	–	1382.8	1355.8	3.49	2.88	–	1.93	1.64
x1 = 0.3003	1560.9	1534	1507.4	1481.3	1455.6	4.8	3.84	3.14	2.63	2.24
x1 = 0.3945	1641	1614.9	1589.2	1563.9	1539.2	6.72	5.3	4.29	3.56	3
x1 = 0.5007	1711	1685.5	1660.4	1635.8	1611.5	9.41	7.24	5.73	4.67	3.91
x1 = 0.6016	1768.2	1743.3	1718.9	–	1671.5	12.82	9.63	7.51	–	4.97
x1 = 0.7018	1805.7	1781.1	1757	–	–	16.95	12.52	9.54	–	–
x1 = 0.8045	–	1813.9	1790	1766.5	1743.5	–	16.42	12.35	9.58	7.66
x1 = 0.8971	–	–	1813.9	–	1767.8	–	–	15.08	–	9.05
x1 = 0.951	1875.9	1851.7	–	1804.6	–	34.19	23.87	–	13	–
x1 = 1	1887.6	1863.4	1839.7	–	1793.9	38.41	26.31	19.03	–	11.1

CCO + CC[n+]1ccn(C)c1.N#C[S-]
x2 = 0
Details	speed of sound [m/s]	viscosity [mPa·s]
283.15 K	1194.7	1.44
313.15 K	1092.2	0.83
323.15 K	1059.1	0.7
